This note sets out measurements from US20260159500A1, “KINESIN KIF18A INHIBITOR AND USE THEREOF” (SHANGHAI APEIRON THERAPEUTICS COMPANY LIMITED, priority 2022, published 2026).

One experiment relates to OVCAR3 cells. The experiment in a line: Cell proliferation activity test in OVCAR3 cells (CyQUANT Direct). The settings on record: 3 days incubation, CyQUANT fluorescence detection, read-out: OVCAR-3_IC50_nM. Format: cell-based. Here is the method:
OVCAR3 cells were purchased from Nanjing Cobioer Biosciences Co., Ltd. RPMI-1640 medium, fetal bovine serum, and the CyQUANT Direct Cell Proliferation Assay kit were purchased from Thermo Fisher Scientific, USA; 96-well cell culture plates were sourced from Corning, USA.
Culture OVCAR3 cells with RPMI-1640 medium containing 10% fetal bovine serum and incubate them in a 5% CO2 incubator at 37° C. Only cells in the logarithmic growth phase can be used for the test.
Inoculate OVCAR3 cells into a 96-well cell culture plate at 90 μL per well and incubate overnight in a 5% CO2 incubator at 37° C. Dissolve the compound powder in DMSO to prepare a stock solution of 10 mM. Then perform gradient dilution for the compounds in the microplate to achieve a final concentration of 0-10 μM. Add 10 μL of cell culture medium containing compounds to each well to make the final DMSO content 0.2%. Incubate the cell plates in a 5% CO2 incubator at 37° C. for 3 days. Add 100 μL of CyQUANT detection reagent to each well, react at 37° C. for 60 min, and perform fluorescence detection using the PerkinElmer Envision.

For experiment [1], the target named is T1, Human KIF18A (amino acid sequence 1-417) (Homo sapiens, UniProt Q8NI77).
T1 construct: purchased Viva Biotech (Shanghai) Ltd
T1 sequence (Q8NI77 1-417): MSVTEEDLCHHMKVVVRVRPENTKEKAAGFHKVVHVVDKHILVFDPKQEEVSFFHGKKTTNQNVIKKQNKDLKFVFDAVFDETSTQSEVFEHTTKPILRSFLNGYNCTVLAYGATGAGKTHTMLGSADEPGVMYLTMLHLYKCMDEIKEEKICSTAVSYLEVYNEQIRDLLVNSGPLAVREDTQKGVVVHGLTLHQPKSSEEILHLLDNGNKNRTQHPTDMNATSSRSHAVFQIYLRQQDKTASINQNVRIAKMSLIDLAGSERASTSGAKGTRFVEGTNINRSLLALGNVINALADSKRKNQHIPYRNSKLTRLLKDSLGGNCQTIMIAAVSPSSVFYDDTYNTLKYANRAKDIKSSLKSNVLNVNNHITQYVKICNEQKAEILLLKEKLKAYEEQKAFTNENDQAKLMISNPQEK
The experiment in a line: Enzymatic activity test (ADP-Glo, microtubule-stimulated KIF18A ATPase). The experiment is classed as biochemical. As to conditions: 60 μg/mL microtubules, 25 μM ATP, 2.5 nM KIF18A protein, 120 min at ambient temperature, read-out: KIF18A_nM. The procedure: Human KIF18A (amino acid sequence 1-417) was purchased from Viva Biotech (Shanghai) Ltd.; the ADP-Glo™ protein kinase kit was acquired from Promega, USA; tubulin was sourced from Cytoskeleton, USA; and the 384-well assay plate and Envision multifunctional microplate reader were obtained from PerkinElmer, USA.
Dissolve the compound powder in DMSO to prepare a stock solution of 10 mM. Then perform gradient dilution for the compounds in the microplate to achieve a final concentration of 0-10 μM. Then, add 2.5 μL each of tubulin, compound, ATP, and KIF18A protein to the microplate in sequence for reaction at ambient temperature for 120 min. The final concentrations in the enzyme reaction are 60 μg/mL for microtubules, 25 μM for ATP, and 2.5 nM for KIF18A protein. After the enzyme reaction, add 10 μL of ADP-GLO reaction reagent to each well and incubate at ambient temperature for 30 min. After that, add 20 μL of detection reagent to each well and incubate at ambient temperature for 30 min in the dark. Finally, perform chemiluminescence detection using the PerkinElmer Envision.

Read-outs that look alike come from different tables or passages of the source.

As to `O=C(Nc1nc(N2CCC(F)(F)CC2)nc2c1CCC2)c1ccc(NS(=O)(=O)CCO)cc1N1CCC2(CC1)CC2` [Example 1], the IC50 was 1030 nM with OVCAR3 cells (Homo sapiens, OVCAR-3, 72 h) and 190 nM in experiment [1].
For `O=C(Nc1nc(N2CCC(F)(F)CC2)nc2c1COC2)c1ccc(NS(=O)(=O)CCO)cc1N1CCC2(CC1)CC2` [Example 2, N-(2-(4,4-difluoropiperidin-1-yl)-5,7-dihydrofuro[3,4-d]pyrimidin-4-yl)-4-((2-hydroxyethyl)sulfonamide)-2-(6-azaspiro[2.5]octan-6-yl)benzamide], in that order: 899 nM and 251 nM.
The matching figures for `O=C(Nc1nc2c(c(N3CCC(F)(F)CC3)n1)CCC2)c1ccc(NS(=O)(=O)CCO)cc1N1CCC2(CC1)CC2` [Example 3, N-(4-(4,4-difluoropiperidin-1-yl)-6,7-dihydro-5H-cyclopenta[d]pyrimidin-2-yl)-4-((2-hydroxyethyl)sulfonamide)-2-(6-azaspiro[2.5]oct-6-yl)benzamide]: 566 nM and 68 nM.
The matching figures for `CC(C)(C)OC(=O)N1Cc2nc(NC(=O)c3ccc(NS(=O)(=O)CCO)cc3N3CCC4(CC3)CC4)nc(N3CCC(F)(F)CC3)c2C1` [Example 6, Tert-butyl 4-(4,4-difluoropiperidin-1-yl)-2-(4-(2-hydroxyethylsulfonamido)-2-(6-azaspiro[2.5]octan-6-yl)benzoylamino)-5H-pyrrolo[3,4-d]pyrimidine-6 (7H)-carboxylate]: 1480 nM and 241 nM.
Regarding `O=C(Nc1cc2nccn2c(N2CCC(F)(F)CC2)n1)c1ccc(NS(=O)(=O)CCO)cc1N1CCC2(CC1)CC2` [Example 21, N-(5-(4,4-difluoropiperidin-1-yl)imidazolo[1,2-c]pyrimidin-7-yl)-4-((2-hydroxyethyl)sulfonamide)-2-(6-azaspiro[2.5]octan-6-yl)benzamide], in the experiment with OVCAR3 cells (Homo sapiens, OVCAR-3, 72 h), the IC50 was 358 nM.
On to `O=C(Nc1nc(N2CCC(F)(F)CC2)cc2nccn12)c1ccc(NS(=O)(=O)CCO)cc1N1CCC2(CC1)CC2` [Example 22], for which the IC50 in experiment [1] is 1940 nM.
As for `O=C(Nc1nc(N2CCC(F)(F)CC2)c2occc2c1Cl)c1ccc(NS(=O)(=O)CCO)cc1N1CCC2(CC1)CC2` [Example 33, N-(4-chloro-7-(4,4-difluoropiperidin-1-yl)furo[2,3-c]pyridin-5-yl)-4-(2-hydroxyethylsulfonamido)-2-(6-azaspiro[2.5]octan-6-yl)benzamide], the IC50 in experiment [1] was determined as 1640 nM.
Still for that read-out and setting: next, `O=C(Nc1cc2cccnc2c(C2CCN(CC(F)(F)F)CC2)n1)c1ccc(NS(=O)(=O)CCO)cc1N1CCC2(CC1)CC2` [Example 50, 4-(2-hydroxyethylsulfonamido)-2-(6-azaspiro[2.5]octan-6-yl)-N-(8-(1-(2,2,2-trifluoroethyl)piperidin-4-yl)-1,7-naphthyridin-6-yl)benzamide]: 1490 nM.
Regarding `O=C(Nc1cc2ncccc2c(N2CCC(F)(F)CC2)n1)c1ccc(NS(=O)(=O)CCO)cc1N1CCC2(CC1)CC2` [Example 57], the IC50 in experiment [1] was 77 nM.
Regarding `COc1ccc2cc(NC(=O)c3ccc(NS(=O)(=O)CCO)cc3N3CCC4(CC3)CC4)c(F)c(N3CCC(F)(F)CC3)c2n1` [Example 77, N-(8-(4,4-difluoropiperidin-1-yl)-7-fluoro-2-methoxyquinolin-6-yl)-4-((2-hydroxyethyl)sulfonamido)-2-(6-azaspiro[2.5]oct-6-yl)benzamide], the IC50 was found to be 745 nM in the experiment with OVCAR3 cells (Homo sapiens, OVCAR-3, 72 h) and 848 nM in experiment [1].
As for `O=C(Nc1cc(N2CCC(F)(F)CC2)c2nccnc2c1)c1ccc(NS(=O)(=O)CCO)cc1N1CCC2(CC1)CC2` [Example 83, N-(8-(4,4-difluoropiperidin-1-yl)quinoxalin-6-yl)-4-((2-hydroxyethyl)sulfonamido)-2-(6-azaspiro[2.5]octan-6-yl)benzamide], the IC50 was 15 nM with OVCAR3 cells (Homo sapiens, OVCAR-3, 72 h) and 27 nM in experiment [1].
For the molecule `CP(C)(=O)c1cnc2c(N3CCC(F)(F)CC3)cc(NC(=O)c3ccc(NS(=O)(=O)CCO)cc3N3CCC4(CC3)CC4)cc2c1` [Example 85, N-(8-(4,4-difluoropiperidin-1-yl)-3-(dimethylphosphoryl)quinolin-6-yl)-4-(2-hydroxyethylsulfonamido)-2-(6-azaspiro[2.5]octan-6-yl)benzamide], the IC50 in experiment [1] was greater than 3000 nM.
As for `O=C(Nc1cc(N2CCC(F)(F)CC2)c2ncccc2n1)c1ccc(NS(=O)(=O)CCO)cc1N1CCC2(CC1)CC2` [Example 92, N-(4-(4,4-difluoropiperidin-1-yl)-1,5-naphthyridin-2-yl)-4-(2-hydroxyethylsulfonamido)-2-(6-azaspiro[2.5]octan-6-yl)benzamide], the IC50 in experiment [1] was 2260 nM.
Still for that read-out and setting: to `O=C(Nc1cc(N2CCC(F)(F)CC2)nc2cccnc12)c1ccc(NS(=O)(=O)CCO)cc1N1CCC2(CC1)CC2` [Example 93, N-(2-(4,4-difluoropiperidin-1-yl)-1,5-naphthyridin-4-yl)-4-(2-hydroxyethylsulfonamido)-2-(6-azaspiro[2.5]octan-6-yl)benzamide] belongs greater than 3000 nM.
As for `C[C@H](CO)S(=O)(=O)Nc1ccc(C(=O)Nc2cc3sc(N)nc3c(N3CCC(F)(F)CC3)c2F)c(N2CCC3(CC2)CC3)c1` [Example 94, N-[2-amino-4-(4,4-difluoropiperidin-1-yl)-5-fluoro-1,3-benzothiazol-6-yl]-2-{6-azaspiro[2.5]octan-6-yl}-4-[(2R)-1-hydroxypropane-2-sulfonamido]benzamide], the IC50 stood at 5.9 nM with OVCAR3 cells (Homo sapiens, OVCAR-3, 72 h) and 255 nM in experiment [1].
Take `C[C@@H](CO)S(=O)(=O)Nc1ccc(C(=O)Nc2cc3sc(N)nc3c(N3CCC(F)(F)CC3)c2F)c(N2CCC3(CC2)CC3)c1` [Example 95, N-[2-amino-4-(4,4-difluoropiperidin-1-yl)-5-fluoro-1,3-benzothiazol-6-yl]-2-{6-azaspiro[2.5]octan-6-yl}-4-[(2S)-1-hydroxypropane-2-sulfonamido]benzamide]: the IC50 with OVCAR3 cells (Homo sapiens, OVCAR-3, 72 h) is 4.7 nM; in experiment [1], 242 nM.
With `CC(CO)S(=O)(=O)Nc1ccc(C(=O)Nc2cc3sc(N)nc3c(N3CCC(F)(F)CC3)c2F)c(C2=CCC3(CC2)CC3)c1` (stereo not shown) [Example 101, N-(2-amino-4-(4,4-difluoropiperidin-1-yl)-5-fluorobenzo[d]thiazol-6-yl)-4-((2-hydroxy-1-methylethyl)sulfonamido)-2-(spiro[2.5]oct-5-en-6-yl)benzamide], the IC50 in experiment [1] was 139 nM.
The same measure, in the same setting: to `CC(CO)S(=O)(=O)Nc1ccc(C(=O)Nc2cc3cccnc3c(N3[C@H](C)COC[C@H]3C)n2)c(N2CCC3(CC2)CC3)c1` (stereo partly drawn) [Example 102, 2-{6-Azaspiro[2.5]octan-6-yl}-N-[8-((3R,5R)-3,5-dimethylmorpholino)-1,7-naphthyridin-6-yl]-4-[1-hydroxypropane-2-sulfonamido]benzamide] belongs 150 nM.
For “N-(5-(4,4-difluoropiperidin-1-yl) imidazo[1,2-c]pyrimidin-7-yl)-6-((2-hydroxyethyl)sulfonamido)-4-(6-azaspiro[2.5]octan-6-yl) nicotinamide [Example 23]”, the figures for the IC50 (with OVCAR3 cells; in experiment [1]) were greater than 10000 nM and 42 nM, respectively.
